{
  "source": "patent US6248718A",
  "about": "“Lesion-directed dry dosage forms of antibacterial agents for the treatment of acute mucosal infections of the oral cavity” (priority 1999, dated 2001)",
  "key": {"[1]": {"assay": "Local concentrations of penicillin in saliva after topical medication of various doses (Example VII)", "type": "in vivo, human", "settings": "for Penicillin concentration in saliva / concentration at 0.1 h / concentration at 20 min / concentration at 40 min / concentration at 1 h / concentration at 2 h: studies 1-3; for concentration at 0.1 h / concentration at 20 min / concentration at 40 min / concentration at 1 h / concentration at 2 h: human, in vivo, topical or ocular; for concentration at 2 h: 120 min, after water at 60 min", "experimental": "Five healthy adult volunteers, three men and two women, were selected for this study. The same volunteers were used as the subjects for three studies, and the results are summarized as follows.\nOn the day of study, two hours after breakfast, the volunteers were given a dose of 100 mg, 50 mg, 20 mg, 10 mg and 2 mg of USP grade penicillin G potassium powder respectively. The drug powder was placed in the right oral sulcus between the lower gum and the buccal mucosa to be dissolved in a minimum amount of saliva. This loculated pocket of saliva was not to be swallowed and was not to be further diluted by saliva from other parts of the mouth for one hour. At 6 minutes, 20 minutes, 40 minutes and 60 minutes after drug application, an aliquot of 0.01 ml was taken from this pocket of saliva and added into a test tube containing 10 ml of nutrient broth to give a 1,000 times dilution. After being mixed well, aliquots of the mixtures of saliva sample and nutrient broth were forced to pass through bacterial filters into sterile test tubes. Then 0.8 ml of each 1:1,000 diluted filtrate was pipetted and added to 3.2 ml of nutrient broth to make an additional 5 times dilution in a total volume of 4 ml. Two ml was pipetted from the latter to make a serial double dilution of saliva sample in 2 ml of nutrient broth, as described above under a, in 12 test tubes. The dilution factor for the saliva sample in test No. 1 was 1:5,000 and increased progressively to 1:10,240,000 in test tube No. 12.\nAfter the 60-minute sample was taken, the subjects were given an 8 oz. glass of water to drink or to rinse his or her mouth, but refrained from drinking and eating for another hour. At the end of this last hour, i.e. about 2 hours after the drug application, another saliva sample of 0.2 ml was withdrawn and added to 3.8 ml of nutrient broth to make a 1:20 dilution and the mixture was forced to pass a bacterial filter into a sterile test tube. Two (2 ) ml of the filtrate was pipetted from this 1:20 diluted mixture for antibiotic activity assays.\nEach filtered mixture in test tube was inoculated with 0.1 ml of a 1:1,000 dilution of a 12 hour broth culture of Staphylococcus aureus ATCC 29213.\nA row of 6 test tubes each containing 2 ml of nutrient broth with decreasing concentrations of penicillin G potassium from 6.2 to 0.16 mcg/ml, using a serial double dilution method described in a., was prepared and similarly inoculated with 0.1 ml broth culture of Staphylococcus aureus ATCC 29213 as the standard.\nAll test tubes were incubated at 37° C. for 18 hours and observed for bacterial growth against an inoculated broth containing neither antibiotic nor saliva samples.\nThe test tube of the highest number with the highest dilution factor of saliva in nutrient broth in which no bacterial growth was observed was interpreted as containing an equivalent of penicillin G potassium at 0.75 mcg/ml. Using the dilution factors, it was calculated that, after topical application of 2 to 100 mg of penicillin G potassium dry powder, the concentrations of penicillin G potassium in the saliva at the site of medication within the first hour and one hour after purging the mouth with water were as follows."}, "[2]": {"assay": "Topical dry dosage treatment of minor aphthous ulcers, gingivitis and periodontal infections", "type": "in vivo, human", "settings": "50 mg dry dosage form, four times a day", "description": "The administration of the medicament depends upon the type of infection to be treated and the type and dosage of the antibacterial agent used. The appropriate antibacterial agent, dosage and treatment regimen can readily be determined by someone having ordinary skill in this art. […] Thorough tooth cleaning is advised prior to introduction of the medicament to an infected area."}},
  "note": "“And” between values parts separate entries of the source, which are not always exact repeats. Equal values may be shown once.",
  "data": [
    {"smiles": "CC1(C)S[C@@H]2[C@H](NC(=O)Cc3ccccc3)C(=O)N2[C@H]1C(=O)O", "note": "[penicillin G potassium]", "values": [
      {"measurement": "Penicillin concentration in saliva", "setting": "[1]; 2 mg topical powder, 20 min", "value": "below 3.75 mg/ml"},
      {"measurement": "Penicillin concentration in saliva", "setting": "[1]; 2 mg topical powder, 20 min, listed as Penicillin G Potassium", "value": "< 3.75", "unit": "mg/mL"},
      {"measurement": "Penicillin concentration in saliva", "setting": "[1]; 2 mg topical powder, 40 min", "value": "< 3.75", "unit": "mg/mL"},
      {"measurement": "Penicillin concentration in saliva", "setting": "[1]; 2 mg topical powder, 60 min", "value": "< 3.75", "unit": "mg/mL"},
      {"measurement": "Penicillin concentration in saliva", "setting": "[1]; 10 mg topical powder, 6 min", "value": 60, "unit": "mg/mL"},
      {"measurement": "Penicillin concentration in saliva", "setting": "[1]; 10 mg topical powder, 60 min", "value": "3.75 mg/mL and 7.5 mg/mL"},
      {"measurement": "Penicillin concentration in saliva", "setting": "[1]; 20 mg topical powder, 6 min", "value": "240 mg/mL and 120 mg/mL"},
      {"measurement": "Penicillin concentration in saliva", "setting": "[1]; 20 mg topical powder, 20 min", "value": 60, "unit": "mg/mL"},
      {"measurement": "Penicillin concentration in saliva", "setting": "[1]; 20 mg topical powder, 60 min", "value": 7.5, "unit": "mg/mL"},
      {"measurement": "Penicillin concentration in saliva", "setting": "[1]; 50 mg topical powder, 6 min", "value": "240 mg/mL and 480 mg/mL"},
      {"measurement": "Penicillin concentration in saliva", "setting": "[1]; 50 mg topical powder, 20 min", "value": "120 mg/mL and 240 mg/mL"},
      {"measurement": "Penicillin concentration in saliva", "setting": "[1]; 50 mg topical powder, 60 min", "value": 7.5, "unit": "mg/mL"},
      {"measurement": "Penicillin concentration in saliva", "setting": "[1]; 100 mg topical powder, 6 min", "value": 480, "unit": "mg/mL"},
      {"measurement": "Penicillin concentration in saliva", "setting": "[1]; 100 mg topical powder, 20 min", "value": "240 mg/mL and 120 mg/mL"},
      {"measurement": "Penicillin concentration in saliva", "setting": "[1]; 100 mg topical powder, 40 min", "value": 60, "unit": "mg/mL"},
      {"measurement": "Penicillin concentration in saliva", "setting": "[1]; 100 mg topical powder, 60 min", "value": "30 mg/mL and 15 mg/mL"},
      {"measurement": "initial peak concentrations at the site of medication", "setting": "[1]; doses of 2 mg to 100 mg powder", "value": "7.5 to 960", "unit": "mg/mL"},
      {"measurement": "dose required to maintain minimum 3.75 mg/ml in saliva for one hour", "setting": "[1]; dry powder", "value": "at least 10 mg"},
      {"measurement": "concentration at 0.1 h", "setting": "[1]; 2 mg topical powder, 6 min", "value": 15000, "unit": "µg/mL"},
      {"measurement": "concentration at 20 min", "setting": "[1]; 2 mg topical powder, 20 min", "value": 7500, "unit": "µg/mL"},
      {"measurement": "concentration at 40 min", "setting": "[1]; 2 mg topical powder, 40 min", "value": 3750, "unit": "µg/mL"},
      {"measurement": "concentration at 1 h", "setting": "[1]; 2 mg topical powder, 60 min", "value": "< 3750", "unit": "µg/mL"},
      {"measurement": "concentration at 2 h", "setting": "[1]; 2 mg topical powder", "value": "< 15", "unit": "µg/mL"},
      {"measurement": "concentration at 0.1 h", "setting": "[1]; 10 mg topical powder, 6 min", "value": 60000, "unit": "µg/mL"},
      {"measurement": "concentration at 20 min", "setting": "[1]; 10 mg topical powder, 20 min", "value": 30000, "unit": "µg/mL"},
      {"measurement": "concentration at 40 min", "setting": "[1]; 10 mg topical powder, 40 min", "value": 15000, "unit": "µg/mL"},
      {"measurement": "concentration at 1 h", "setting": "[1]; 10 mg topical powder, 60 min", "value": 3750, "unit": "µg/mL"},
      {"measurement": "concentration at 2 h", "setting": "[1]; 10 mg topical powder", "value": "< 15", "unit": "µg/mL"},
      {"measurement": "concentration at 0.1 h", "setting": "[1]; 20 mg topical powder, 6 min", "value": 120000, "unit": "µg/mL"},
      {"measurement": "concentration at 20 min", "setting": "[1]; 20 mg topical powder, 20 min", "value": 60000, "unit": "µg/mL"},
      {"measurement": "concentration at 40 min", "setting": "[1]; 20 mg topical powder, 40 min", "value": 7500, "unit": "µg/mL"},
      {"measurement": "concentration at 1 h", "setting": "[1]; 20 mg topical powder, 60 min", "value": 7500, "unit": "µg/mL"},
      {"measurement": "concentration at 2 h", "setting": "[1]; 20 mg topical powder", "value": "< 15", "unit": "µg/mL"},
      {"measurement": "concentration at 0.1 h", "setting": "[1]; 50 mg topical powder, 6 min", "value": 480000, "unit": "µg/mL"},
      {"measurement": "concentration at 20 min", "setting": "[1]; 50 mg topical powder, 20 min", "value": 240000, "unit": "µg/mL"},
      {"measurement": "concentration at 40 min", "setting": "[1]; 50 mg topical powder, 40 min", "value": 30000, "unit": "µg/mL"},
      {"measurement": "concentration at 1 h", "setting": "[1]; 50 mg topical powder, 60 min", "value": 7500, "unit": "µg/mL"},
      {"measurement": "concentration at 2 h", "setting": "[1]; 50 mg topical powder", "value": "< 15", "unit": "µg/mL"},
      {"measurement": "concentration at 0.1 h", "setting": "[1]; 100 mg topical powder, 6 min", "value": 960000, "unit": "µg/mL"},
      {"measurement": "concentration at 20 min", "setting": "[1]; 100 mg topical powder, 20 min", "value": 240000, "unit": "µg/mL"},
      {"measurement": "concentration at 40 min", "setting": "[1]; 100 mg topical powder, 40 min", "value": 30000, "unit": "µg/mL"},
      {"measurement": "concentration at 1 h", "setting": "[1]; 100 mg topical powder, 60 min", "value": 15000, "unit": "µg/mL"},
      {"measurement": "concentration at 2 h", "setting": "[1]; 100 mg topical powder", "value": "< 15", "unit": "µg/mL"},
      {"measurement": "concentration in saliva after drinking", "setting": "[1]; one hour after 8 oz. of fluid, all doses", "value": "< 15", "unit": "µg/mL"},
      {"measurement": "patients with complete relief of pains within about 48 hours", "setting": "[2]", "value": "over 90%"},
      {"measurement": "time to complete relief of pains", "setting": "[2]", "value": "≤ 48", "unit": "h"}
    ]}
  ]
}
